Results reported in US4746349A, “Method and compositions for suppressing the nitrification of ammonium in plant growth medium” (American Cyanamid Company, priority 1986, dated 1988).
Counter-ions that a name gives are not always drawn.

Legend:
[1] = test system: Nitrobacter spp.; assay: Nitrite nitrogen in ammonium amended soil incubated at 25° C.; details: soil 25° C., 200 ppm N
Experimental: Determination of nitrite nitrogen and nitrate nitrogen in soil prepared in Example 1 above, which is amended with 200 ppm of nitrogen as aqueous ammonium sulfate, […], is determined using the nitrite and nitrate analysis of the American Organization of Analytical Chemists (AOAC pp. 653-655).

[2] = test system: Nitrosomonas spp.; assay: Nitrification of ammonium in soil incubated at 25° C. (ammonium recovery, nitrate accumulation); details: soil 25° C.; for Concentration of nitrate nitrogen / Recovery of Ammonium Nitrogen: 200 ppm N
Experimental: In these evaluations, one hundred grams (100 g) of oven dry, silt loam field soil with low residual nitrogen is added to a 6×12 cm screw-capped glass jar for each sampling date to provide an optimum environment for nitrification.
Two replicates of each treatment-sampling date are established. The soil is adjusted to 50% water saturation with an aqueous solution of ammonium sulfate at 200 ppm N and the chemical to be tested as a nitrification inhibitor at rates of from 0.10 to 0.50 ppm.
Incubation is at either 25° C. or 38° C. for 0, 1, 2, 4, 7, 9, 12, 16 or 20 weeks. Inorganic N is extracted by adding 2M KCl (10:1 v/w) and shaking for one hour, allowing settling for fifteen minutes. A 10 ml aliquot from the supernatant is assayed for ammonium, nitrite and nitrate by standard steam distillation methods (AOAC, pp. 653-655). Nitrapyrin (0.5 ppm) is used as a nitrification inhibitor for comparison. Benzyl alcohol, acetone, and a non-N amended soil are run as controls and as a check on mineralization.
Nitrification: Ammonium recovery and nitrate accumulation are indicative of nitrification, and data obtained with test compounds are reported in Tables I and II.

CC[C@@H](C(=O)[C@@H](C)[C@@H](O)[C@H](C)CCc1ccc(C)c(O)c1C(=O)O)[C@H]1O[C@](CC)([C@H]2CC[C@](O)(CC)[C@H](C)O2)C[C@@H]1C [Lasalocid sodium salt, Lasalocid]
Concentration of nitrite nitrogen ([1]; 0.10 ppm, week 0): 8 ppm | Concentration of nitrite nitrogen ([1]; 0.10 ppm, week 1): 2 ppm | Concentration of nitrite nitrogen ([1]; 0.10 ppm, week 2): 1 ppm | Concentration of nitrite nitrogen ([1]; 0.10 ppm, week 4): 15 ppm | Concentration of nitrite nitrogen ([1]; 0.10 ppm, week 7): 12 ppm | Concentration of nitrite nitrogen ([1]; 0.10 ppm, week 9): 10 ppm | Concentration of nitrite nitrogen ([1]; 0.10 ppm, week 12): 5 ppm | Concentration of nitrite nitrogen ([1]; 0.10 ppm, week 16): 6 ppm | Concentration of nitrite nitrogen ([1]; 0.10 ppm, week 20): 11 ppm | Concentration of nitrite nitrogen ([1]; 0.25 ppm, week 0): 5 ppm | Concentration of nitrite nitrogen ([1]; 0.25 ppm, week 1): 0 ppm | Concentration of nitrite nitrogen ([1]; 0.25 ppm, week 2): 3 ppm | Concentration of nitrite nitrogen ([1]; 0.25 ppm, week 4): 2 ppm | Concentration of nitrite nitrogen ([1]; 0.25 ppm, week 7): 0 ppm | Concentration of nitrite nitrogen ([1]; 0.25 ppm, week 9): 3 ppm | Concentration of nitrite nitrogen ([1]; 0.25 ppm, week 12): 8 ppm | Concentration of nitrite nitrogen ([1]; 0.25 ppm, week 16): -1 ppm | Concentration of nitrite nitrogen ([1]; 0.25 ppm, week 20): 40 ppm | Concentration of nitrite nitrogen ([1]; 0.50 ppm, week 0): 7 ppm | Concentration of nitrite nitrogen ([1]; 0.50 ppm, week 1): 2 ppm | Concentration of nitrite nitrogen ([1]; 0.50 ppm, week 2): 6 ppm | Concentration of nitrite nitrogen ([1]; 0.50 ppm, week 4): 2 ppm | Concentration of nitrite nitrogen ([1]; 0.50 ppm, week 7): -4 ppm | Concentration of nitrite nitrogen ([1]; 0.50 ppm, week 9): 2 ppm | Concentration of nitrite nitrogen ([1]; 0.50 ppm, week 12): -11 ppm | Concentration of nitrite nitrogen ([1]; 0.50 ppm, week 16): 7 ppm | Concentration of nitrite nitrogen ([1]; 0.50 ppm, week 20): 7 ppm | Concentration of nitrate nitrogen ([2]; 0.10 ppm, week 0): 19 PPM | Recovery of Ammonium Nitrogen ([2]; 0.10 ppm, week 0): 194 PPM | Concentration of nitrate nitrogen ([2]; 0.10 ppm, week 1): 21 PPM | Recovery of Ammonium Nitrogen ([2]; 0.10 ppm, week 1): 177 PPM | Concentration of nitrate nitrogen ([2]; 0.10 ppm, week 2): 41 PPM | Recovery of Ammonium Nitrogen ([2]; 0.10 ppm, week 2): 143 PPM | Concentration of nitrate nitrogen ([2]; 0.10 ppm, week 4): 90 PPM | Recovery of Ammonium Nitrogen ([2]; 0.10 ppm, week 4): 109 PPM | Concentration of nitrate nitrogen ([2]; 0.10 ppm, week 7): 197 PPM | Recovery of Ammonium Nitrogen ([2]; 0.10 ppm, week 7): 7 PPM | Concentration of nitrate nitrogen ([2]; 0.10 ppm, week 9): 219 PPM | Recovery of Ammonium Nitrogen ([2]; 0.10 ppm, week 9): 0 PPM | Concentration of nitrate nitrogen ([2]; 0.10 ppm, week 12): 220 PPM | Recovery of Ammonium Nitrogen ([2]; 0.10 ppm, week 12): 8 PPM | Concentration of nitrate nitrogen ([2]; 0.10 ppm, week 16): 223 PPM | Recovery of Ammonium Nitrogen ([2]; 0.10 ppm, week 16): 3 PPM | Specific inhibition of nitrification through activity against Nitrosomonas spp., in words ([2]; 0.1 to 0.5 ppm): appear to specifically inhibit nitrification through activity against Nitrosomonas spp. | Concentration of nitrate nitrogen ([2]; 0.25 ppm, week 0): 18 PPM | Recovery of Ammonium Nitrogen ([2]; 0.25 ppm, week 0): 194 PPM | Concentration of nitrate nitrogen ([2]; 0.25 ppm, week 1): 21 PPM | Recovery of Ammonium Nitrogen ([2]; 0.25 ppm, week 1): 184 PPM | Concentration of nitrate nitrogen ([2]; 0.25 ppm, week 2): 18 PPM | Recovery of Ammonium Nitrogen ([2]; 0.25 ppm, week 2): 186 PPM | Concentration of nitrate nitrogen ([2]; 0.25 ppm, week 4): 28 PPM | Recovery of Ammonium Nitrogen ([2]; 0.25 ppm, week 4): 197 PPM | Concentration of nitrate nitrogen ([2]; 0.25 ppm, week 7): 26 PPM | Recovery of Ammonium Nitrogen ([2]; 0.25 ppm, week 7): 194 PPM | Concentration of nitrate nitrogen ([2]; 0.25 ppm, week 9): 68 PPM | Recovery of Ammonium Nitrogen ([2]; 0.25 ppm, week 9): 147 PPM | Concentration of nitrate nitrogen ([2]; 0.25 ppm, week 12): 46 PPM | Recovery of Ammonium Nitrogen ([2]; 0.25 ppm, week 12): 180 PPM | Concentration of nitrate nitrogen ([2]; 0.25 ppm, week 16): 158 PPM | Recovery of Ammonium Nitrogen ([2]; 0.25 ppm, week 16): 78 PPM | Concentration of nitrate nitrogen ([2]; 0.25 ppm, week 20): 154 PPM | Recovery of Ammonium Nitrogen ([2]; 0.25 ppm, week 20): 44 PPM | Concentration of nitrate nitrogen ([2]; 0.50 ppm, week 0): 18 PPM | Recovery of Ammonium Nitrogen ([2]; 0.50 ppm, week 0): 195 PPM | Concentration of nitrate nitrogen ([2]; 0.50 ppm, week 1): 18 PPM | Recovery of Ammonium Nitrogen ([2]; 0.50 ppm, week 1): 169 PPM | Concentration of nitrate nitrogen ([2]; 0.50 ppm, week 2): 14 PPM | Recovery of Ammonium Nitrogen ([2]; 0.50 ppm, week 2): 168 PPM | Concentration of nitrate nitrogen ([2]; 0.50 ppm, week 4): 18 PPM | Recovery of Ammonium Nitrogen ([2]; 0.50 ppm, week 4): 173 PPM | Concentration of nitrate nitrogen ([2]; 0.50 ppm, week 7): 18 PPM | Recovery of Ammonium Nitrogen ([2]; 0.50 ppm, week 7): 199 PPM | Concentration of nitrate nitrogen ([2]; 0.50 ppm, week 9): 17 PPM | Recovery of Ammonium Nitrogen ([2]; 0.50 ppm, week 9): 202 PPM | Concentration of nitrate nitrogen ([2]; 0.50 ppm, week 12): 20 PPM | Recovery of Ammonium Nitrogen ([2]; 0.50 ppm, week 12): 215 PPM | Concentration of nitrate nitrogen ([2]; 0.50 ppm, week 16): 52 PPM | Recovery of Ammonium Nitrogen ([2]; 0.50 ppm, week 16): 175 PPM | Concentration of nitrate nitrogen ([2]; 0.50 ppm, week 20): 26 PPM | Recovery of Ammonium Nitrogen ([2]; 0.50 ppm, week 20): 135 PPM
